Data set [1] concerns the target T1, AasS (Vibrio harveyi, UniProt Q00IB3).
T1 sequence (Q00IB3 1-533): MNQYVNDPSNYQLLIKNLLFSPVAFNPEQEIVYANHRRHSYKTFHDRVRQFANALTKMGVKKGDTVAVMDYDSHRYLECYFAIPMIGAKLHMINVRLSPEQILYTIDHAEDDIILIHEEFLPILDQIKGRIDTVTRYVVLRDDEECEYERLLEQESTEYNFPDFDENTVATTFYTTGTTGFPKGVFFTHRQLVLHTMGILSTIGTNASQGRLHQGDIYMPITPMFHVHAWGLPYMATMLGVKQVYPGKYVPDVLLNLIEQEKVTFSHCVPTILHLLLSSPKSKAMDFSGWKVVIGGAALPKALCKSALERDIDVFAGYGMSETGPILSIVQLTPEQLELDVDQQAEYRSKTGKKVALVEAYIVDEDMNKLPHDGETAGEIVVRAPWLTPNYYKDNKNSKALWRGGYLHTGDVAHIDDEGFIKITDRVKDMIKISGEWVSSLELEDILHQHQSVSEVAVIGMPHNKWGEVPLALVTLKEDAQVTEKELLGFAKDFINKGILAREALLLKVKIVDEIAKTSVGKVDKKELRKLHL
Briefly: cryo-EM structure. Type of data set: binding. As to conditions: 2 mM MgCl2, 5 mM AMP-PNP; tetramer; ATP site.

For data set [2], the target named is T1, AasS. Briefly: cryo-EM structure. Format: binding. The note with it: 1.5 mM ATP, no Mg2+; hexamer; phosphate density not continuous.
Data set [3] deals with T1, AasS. The data set can be described thus: ITC, one set of sites. Format: binding. (In general: In ITC the heat of successive injections is recorded.)
The data set “SEC” concerns the molecule itself. Briefly: SEC. Background: SEC sorts molecules by how far they enter the pores of the column.

Consider `Nc1ncnc2c1ncn2[C@@H]1O[C@H](COP(=O)(O)OP(=O)(O)NP(=O)(O)O)[C@@H](O)[C@H]1O` [AMP-PNP], for which, at AasS [1], the “cryo-EM structure (2.68 Å)” value is recorded as “continuous density for the bound AMP-PNP cofactor”.

As to `Nc1ncnc2c1ncn2[C@@H]1O[C@H](COP(=O)(O)OP(=O)(O)OP(=O)(O)O)[C@@H](O)[C@H]1O` [ATP], the “cryo-EM structure (2.45 Å)” value at AasS [2] is listed as “the cryo-EM structure of ATP-liganded AasS remains a hexamer ring”.

One may read the Kd as the constant that tells how readily two partners part at equilibrium. On AasS [3], `CCOC(=O)CCCCCC(=O)O` [E-pim] yielded a Kd of roughly 6.45 µM.

B1: Vibrio harveyi acyl-ACP synthetase AasS, recombinant with an N-terminal 6xHis-tag (enzyme, UniProt Q00IB3 1-533, looked up)
chain: T1 sequence (Q00IB3 1-533)
In general, stoichiometry N refers to a count of units in the complex or per binding partner. On to B1, for which, in the data set “SEC”, the “stoichiometry N” value worked out at 6.

The record behind these values is publication PMC12086093 (Nature Structural & Molecular Biology, 2025).
